Experimental data taken from US10647747B2, “Cyclosporin derivatives and uses thereof” (S&T Global Inc., priority 2010, dated 2020).
*1 amine or outer side, *2 acyl side, *3 side chain or, on linkers, in order; H or OH if unused. Where a SMILES comes first, the peptide text is derived from it. [ ]: non-standard residue; d: D form. ξ: configuration not given here. MeBmt = C/C=C/C[C@@H](C)[C@@H](O)[C@H](NC)C(=O)O; X6 = CCN(CC)CCS[C@H](C(=O)[*:2])N(C)[*:1]; NMeIle(3ξ) = CCC(C)[C@H](NC)C(=O)O; NMeL = CN[C@@H](CC(C)C)C(=O)O; NMeV = CN[C@H](C(=O)O)C(C)C; Abu = CC[C@H](N)C(=O)O

Tested on: HCV replicon in cell line ET (luc-ubi-neo/ET), Huh7 human hepatoma
Test: HCV subgenomic replicon assay, luciferase end point
Format: cell-based
Conditions: HCV subgenomic replicon, cell line ET (luc-ubi-neo/ET) Huh7, luciferase end point; read-out: Antiviral activity EC50

Compound | EC50 [nM]
C/C=C/C[C@@H](C)[C@@H](O)[C@H]1C(=O)N[C@@H](CC)C(=O)N(C)[C@H](CSCCN(CC)CC)C(=O)N(C)[C@@H](CC(C)(C)O)C(=O)N[C@@H](C(C)C)C(=O)N(C)[C@@H](CC(C)C)C(=O)N[C@@H](C)C(=O)N[C@H](C)C(=O)N(C)[C@@H](CC(C)C)C(=O)N(C)[C@@H](CC(C)C)C(=O)N(C)[C@@H](C(C)C)C(=O)N1C (single isomer, unassigned; isomer b) | 90
CC=CCC(C)C(O)C1C(=O)NC(CC)C(=O)N(C)C(CSCCCN2CCCCC2)C(=O)N(C)C(CC(C)(C)O)C(=O)NC(C(C)C)C(=O)N(C)C(CC(C)C)C(=O)NC(C)C(=O)NC(C)C(=O)N(C)C(CC(C)C)C(=O)N(C)C(CC(C)C)C(=O)N(C)C(C(C)C)C(=O)N1C (stereo not drawn) | 50
CC=CCC(C)C(O)C1C(=O)NC(CC)C(=O)N(C)C(CSCCN(CC(C)C)CC(C)C)C(=O)N(C)C(CC(C)(C)O)C(=O)NC(C(C)C)C(=O)N(C)C(CC(C)C)C(=O)NC(C)C(=O)NC(C)C(=O)N(C)C(CC(C)C)C(=O)N(C)C(CC(C)C)C(=O)N(C)C(C(C)C)C(=O)N1C (stereo not drawn) | 120
CC=CCC(C)C(O)C1C(=O)NC(CC)C(=O)N(C)C(CSCCN(CC)C(C)C)C(=O)N(C)C(CC(C)(C)O)C(=O)NC(C(C)C)C(=O)N(C)C(CC(C)C)C(=O)NC(C)C(=O)NC(C)C(=O)N(C)C(CC(C)C)C(=O)N(C)C(CC(C)C)C(=O)N(C)C(C(C)C)C(=O)N1C (stereo not drawn) | 70
C/C=C/C[C@@H](C)[C@@H](O)[C@H]1C(=O)N[C@@H](CC)C(=O)N(C)[C@H](COCCCN2CCCC2)C(=O)N(C)[C@@H](CC(C)(C)O)C(=O)N[C@@H](C(C)C)C(=O)N(C)[C@@H](CC(C)C)C(=O)N[C@@H](C)C(=O)N[C@H](C)C(=O)N(C)[C@@H](CC(C)C)C(=O)N(C)[C@@H](CC(C)C)C(=O)N(C)[C@@H](C(C)C)C(=O)N1C | 220
CC=CCC(C)C(O)C1C(=O)NC(CC)C(=O)N(C)C(CSCCCN2CCOCC2)C(=O)N(C)C(CC(C)(C)OC)C(=O)NC(C(C)C)C(=O)N(C)C(CC(C)C)C(=O)NC(C)C(=O)NC(C)C(=O)N(C)C(CC(C)C)C(=O)N(C)C(CC(C)C)C(=O)N(C)C(C(C)C)C(=O)N1C (stereo not drawn) | 100
C/C=C/C[C@@H](C)[C@@H](O)[C@H]1C(=O)N[C@@H](CC)C(=O)N(C)[C@H](CSCCCN2CCOCC2)C(=O)N(C)[C@@H](CC(C)(C)O)C(=O)N[C@@H](C(C)C)C(=O)N(C)[C@@H](CC(C)C)C(=O)N[C@@H](C)C(=O)N[C@H](C)C(=O)N(C)[C@@H](CC(C)C)C(=O)N(C)[C@@H](CC(C)C)C(=O)N(C)[C@@H](C(C)C)C(=O)N1C [listing 1 of 2 here] | 50
CC=CCC(C)C(O)C1C(=O)NC(CC)C(=O)N(C)C(CSCCCN2CCCC2)C(=O)N(C)C(CC(C)(C)O)C(=O)NC(C(C)C)C(=O)N(C)C(CC(C)C)C(=O)NC(C)C(=O)NC(C)C(=O)N(C)C(CC(C)C)C(=O)N(C)C(CC(C)C)C(=O)N(C)C(C(C)C)C(=O)N1C (stereo not drawn) | 100
CC=CCC(C)C(O)C1C(=O)NC(CC)C(=O)N(C)C(CSCCN2CCN(C)CC2)C(=O)N(C)C(CC(C)(C)O)C(=O)NC(C(C)C)C(=O)N(C)C(CC(C)C)C(=O)NC(C)C(=O)NC(C)C(=O)N(C)C(CC(C)C)C(=O)N(C)C(CC(C)C)C(=O)N(C)C(C(C)C)C(=O)N1C (stereo not drawn) | 90

Same assay, conditions: Hepatitis C virus, Huh-7, Table 14, HCV replicon luciferase; read-out: Antiviral activity EC50

Compound | EC50 [nM]
C/C=C/C[C@@H](C)[C@@H](O)[C@H]1C(=O)N[C@@H](CC)C(=O)N(C)[C@H](CSCCCN(CC)CC)C(=O)N(C)[C@@H](CC(C)(C)O)C(=O)N[C@@H](C(C)C)C(=O)N(C)[C@@H](CC(C)C)C(=O)N[C@@H](C)C(=O)N[C@H](C)C(=O)N(C)[C@@H](CC(C)C)C(=O)N(C)[C@@H](CC(C)C)C(=O)N(C)[C@@H](C(C)C)C(=O)N1C | 30
C/C=C/C[C@@H](C)[C@@H](O)[C@H]1C(=O)N[C@@H](CC)C(=O)N(C)[C@H](CSCCCN2CCOCC2)C(=O)N(C)[C@@H](CC(C)(C)O)C(=O)N[C@@H](C(C)C)C(=O)N(C)[C@@H](CC(C)C)C(=O)N[C@@H](C)C(=O)N[C@H](C)C(=O)N(C)[C@@H](CC(C)C)C(=O)N(C)[C@@H](CC(C)C)C(=O)N(C)[C@@H](C(C)C)C(=O)N1C [listing 2 of 2 here] | 20
C/C=C/C[C@@H](C)[C@@H](O)[C@H]1C(=O)N[C@@H](CC)C(=O)N(C)[C@H](COCCN(CC)CC)C(=O)N(C)[C@@H](CC(C)(C)OC)C(=O)N[C@@H](C(C)C)C(=O)N(C)[C@@H](CC(C)C)C(=O)N[C@@H](C)C(=O)N[C@H](C)C(=O)N(C)[C@@H](CC(C)C)C(=O)N(C)[C@@H](CC(C)C)C(=O)N(C)[C@@H](C(C)C)C(=O)N1C | 20

Same assay, conditions: Hepatitis C virus, Huh-7, read-out: Antiviral activity EC50, Table 12, HCV replicon luciferase

Compound | EC50 [nM]
C/C=C/C[C@@H](C)[C@@H](O)[C@H]1C(=O)N[C@@H](CC)C(=O)N(C)CC(=O)N(C)[C@@H]([C@@H](C)CC)C(=O)N[C@@H](C(C)C)C(=O)N(C)[C@@H](CC(C)C)C(=O)N[C@@H](C)C(=O)N[C@H](C)C(=O)N(C)[C@@H](CC(C)C)C(=O)N(C)[C@@H](CC(C)C)C(=O)N(C)[C@@H](C(C)C)C(=O)N1C [[N-MeIle]-4-cyclosporin (SDZ-NIM-811), N-MeIle-4-Cyclosporin, reference compound] | 150

Same assay, conditions: Table 12, HCV replicon luciferase; read-out: Antiviral activity EC50

Compound | EC50 [nM]
C/C=C/C[C@@H](C)[C@@H](O)[C@H]1C(=O)N[C@@H](CC)C(=O)N(C)[C@H](SCCN(CC)CC)C(=O)N(C)[C@@H](C(C)C)C(=O)N[C@@H](C(C)C)C(=O)N(C)[C@@H](CC(C)C)C(=O)N[C@@H](C)C(=O)N[C@H](C)C(=O)N(C)[C@@H](CC(C)C)C(=O)N(C)[C@@H](CC(C)C)C(=O)N(C)[C@@H](C(C)C)C(=O)N1C [(R)-2-(N,N-Diethylamino)ethylthio-Sar]-3-[N-MeVal]-4-cyclosporin] (cyclo(A[dA][NMeL][NMeL][NMeV][MeBmt][Abu][X6][NMeV]V[NMeL])) | 3660
CC=CCC(C)C(O)C1C(=O)NC(CC)C(=O)N(C)C(SCCNCC(C)(C)C)C(=O)N(C)C(CC(C)C)C(=O)NC(C(C)C)C(=O)N(C)C(CC(C)C)C(=O)NC(C)C(=O)NC(C)C(=O)N(C)C(CC(C)C)C(=O)N(C)C(CC(C)C)C(=O)N(C)C(C(C)C)C(=O)N1C [(R)-2-(N-neo-Pentylamino)ethylthio-Sar]-3-cyclosporin] | 3090
C/C=C/C[C@@H](C)[C@@H](O)[C@H]1C(=O)N[C@@H](CC)C(=O)N(C)[C@H](SCCN(CC)CC)C(=O)N(C)[C@@H](C(C)CC)C(=O)N[C@@H](C(C)C)C(=O)N(C)[C@@H](CC(C)C)C(=O)N[C@@H](C)C(=O)N[C@H](C)C(=O)N(C)[C@@H](CC(C)C)C(=O)N(C)[C@@H](CC(C)C)C(=O)N(C)[C@@H](C(C)C)C(=O)N1C (stereo partly drawn) [(R)-2-(N,N-Diethylamino)ethylthio-Sar]-3-[N-MeIle]-4-cyclosporin] (cyclo(A[dA][NMeL][NMeL][NMeV][MeBmt][Abu][X6][NMeIle(3ξ)]V[NMeL])) | 1870
(R)-2-(N-iso-Butyl-N-iso-propylamino)ethylthio-Sar]-3-cyclosporin | 4650
CC=CCC(C)C(O)C1C(=O)NC(CC)C(=O)N(C)C(SCCN(CC)CC)C(=O)N(C)C(CC(C)C)C(=O)NC(C(C)C)C(=O)N(C)C(CC(C)C)C(=O)NC(C)C(=O)NC(C)C(=O)N(C)C(CC(C)C)C(=O)N(C)C(CC(C)C)C(=O)N(C)C(C(C)C)C(=O)N1C [(S)-2-(N-Diethylamino)ethylthio-Sar]-3-cyclosporin] | 160
CC=CCC(C)C(O)C1C(=O)NC(CC)C(=O)N(C)C(SCCN(C)C)C(=O)N(C)C(C(C)C)C(=O)NC(C(C)C)C(=O)N(C)C(CC(C)C)C(=O)NC(C)C(=O)NC(C)C(=O)N(C)C(CC(C)C)C(=O)N(C)C(CC(C)C)C(=O)N(C)C(C(C)C)C(=O)N1C [(S)-2-(N,N-Dimethylamino)ethylthio-Sar]-3-[N-MeVal]-4-cyclosporin] | 130

Same assay, conditions: Table 13, HCV replicon luciferase; read-out: Antiviral activity EC50

Compound | EC50 [nM]
C/C=C/C[C@@H](C)[C@@H](O)[C@H]1C(=O)N[C@@H](CC)C(=O)N(C)[C@H](CSCCN(CC)CC)C(=O)N(C)[C@@H](CC(C)(C)O)C(=O)N[C@@H](C(C)C)C(=O)N(C)[C@@H](CC(C)C)C(=O)N[C@@H](C)C(=O)N[C@H](C)C(=O)N(C)[C@@H](CC(C)C)C(=O)N(C)[C@@H](CC(C)C)C(=O)N(C)[C@@H](C(C)C)C(=O)N1C (single isomer, unassigned; isomer b) | 30
CCCCC(C)C(O)C1C(=O)NC(CC)C(=O)N(C)CC(=O)N(C)C(CC(C)(C)OC)C(=O)NC(C(C)C)C(=O)N(C)C(CC(C)C)C(=O)NC(C)C(=O)NC(C)C(=O)N(C)C(CC(C)C)C(=O)N(C)C(CC(C)C)C(=O)N(C)C(C(C)C)C(=O)N1C (stereo not drawn) [[(γ-Methoxy)-N-MeLeu]-4-dihydrocyclosporin] | 350
CC=CCC(C)C(O)C1C(=O)NC(CC)C(=O)N(C)C(SCCCN(CC)CC)C(=O)N(C)C(CC(C)(C)O)C(=O)NC(C(C)C)C(=O)N(C)C(CC(C)C)C(=O)NC(C)C(=O)NC(C)C(=O)N(C)C(CC(C)C)C(=O)N(C)C(CC(C)C)C(=O)N(C)C(C(C)C)C(=O)N1C [(S)-3-(N,N-Diethylamino)propylthio-Sar]-3-[(γ-hydroxy)-N-MeLeu]-4-cyclosporin] | 70

Same assay, conditions: Table 14, HCV replicon luciferase; read-out: Antiviral activity EC50

Compound | EC50 [nM]
C/C=C/C[C@@H](C)[C@@H](O)[C@H]1C(=O)N[C@@H](CC)C(=O)N(C)[C@H](COCCCN2CCOCC2)C(=O)N(C)[C@@H](CC(C)(C)O)C(=O)N[C@@H](C(C)C)C(=O)N(C)[C@@H](CC(C)C)C(=O)N[C@@H](C)C(=O)N[C@H](C)C(=O)N(C)[C@@H](CC(C)C)C(=O)N(C)[C@@H](CC(C)C)C(=O)N(C)[C@@H](C(C)C)C(=O)N1C [[(R)-(3-(N-Morpholino)propoxy)methyl-Sar]-3-[(γ-hydroxy)-NMeLeu]-4-cyclosporin] | 40
C/C=C/C[C@@H](C)[C@@H](O)[C@H]1C(=O)N[C@@H](CC)C(=O)N(C)[C@H](COCCCN2CCCC2)C(=O)N(C)[C@@H](CC(C)(C)O)C(=O)N[C@@H](C(C)C)C(=O)N(C)[C@@H](CC(C)C)C(=O)N[C@@H](C)C(=O)N[C@H](C)C(=O)N(C)[C@@H](CC(C)C)C(=O)N(C)[C@@H](CC(C)C)C(=O)N(C)[C@@H](C(C)C)C(=O)N1C | 120
C/C=C/C[C@@H](C)[C@@H](O)[C@H]1C(=O)N[C@@H](CC)C(=O)N(C)[C@@H](COCCN(CC)CC)C(=O)N(C)[C@@H](CC(C)(C)O)C(=O)N[C@@H](C(C)C)C(=O)N(C)[C@@H](CC(C)C)C(=O)N[C@@H](C)C(=O)N[C@H](C)C(=O)N(C)[C@@H](CC(C)C)C(=O)N(C)[C@@H](CC(C)C)C(=O)N(C)[C@@H](C(C)C)C(=O)N1C | 50

Same assay, conditions: Table 16, HCV replicon luciferase; read-out: Antiviral activity EC50

Compound | EC50 [nM]
C/C=C/C[C@@H](C)[C@@H](O)[C@H]1C(=O)N[C@@H](CC)C(=O)N(C)[C@H](CSCCCN(CC(C)C)CC(C)C)C(=O)N(C)[C@@H](CC(C)(C)O)C(=O)N[C@@H](C(C)C)C(=O)N(C)[C@@H](CC(C)C)C(=O)N[C@@H](C)C(=O)N[C@H](C)C(=O)N(C)[C@@H](CC(C)C)C(=O)N(C)[C@@H](CC(C)C)C(=O)N(C)[C@@H](C(C)C)C(=O)N1C | 40
C/C=C/C[C@@H](C)[C@@H](O)[C@H]1C(=O)N[C@@H](CC)C(=O)N(C)[C@H](CSCCCN2CCOCC2)C(=O)N(C)[C@@H](CC(C)(C)O)C(=O)N[C@@H](C(C)C)C(=O)N(C)[C@@H](CC(C)C)C(=O)N[C@@H](C)C(=O)N[C@H](C)C(=O)N(C)[C@@H](CC(C)C)C(=O)N(C)[C@@H](CC(C)C)C(=O)N(C)[C@@H](C(C)C)C(=O)N1C [listing 1 of 2 here] | 40
